Experimental data from ChEMBL document CHEMBL4393726, “Distinct biological responses of metastatic castration resistant prostate cancer cells upon exposure to G-quadruplex interacting naphthalenediimide derivatives” (Eur J Med Chem, 2019).
One block for each compound: values may come before it. The source made the active and inactive calls. No cut-off for these calls is given here.

Legend:
DU-145 [1] = assay: Cytotoxicity against human DU145 cells assessed as decrease in cell viability after 24 hrs by MTS assay; assay type: functional, cell-based; details: DU-145, 24 h
DU-145 [2] = assay: Cytotoxicity against human DU145 cells assessed as decrease in cell viability after 48 hrs by MTS assay; assay type: functional, cell-based; details: DU-145, 48 h
DU-145 [3] = assay: Cytotoxicity against human DU145 cells assessed as decrease in cell viability after 72 hrs by MTS assay; assay type: functional, cell-based; details: DU-145, 72 h
PC-3 [4] = assay: Cytotoxicity against human PC3 cells assessed as decrease in cell viability after 24 hrs by MTS assay; assay type: functional, cell-based; details: PC-3, 24 h
PC-3 [5] = assay: Cytotoxicity against human PC3 cells assessed as decrease in cell viability after 48 hrs by MTS assay; assay type: functional, cell-based; details: PC-3, 48 h
PC-3 [6] = assay: Cytotoxicity against human PC3 cells assessed as decrease in cell viability after 72 hrs by MTS assay; assay type: functional, cell-based; details: PC-3, 72 h
PC-3 [7] = assay: Effect on ERK 1/2 basal level in human PC3 cells assessed as downregulation of ERK 1/2 basal level at 48 hrs IC50 incubated for 48 hrs by Western immunoblot assay; assay type: ADME, cell-based; details: pc-3, 48 h
DU-145 [8] = assay: Effect on ERK 1 basal level in human DU145 cells assessed as reduction in ERK 1 basal level at 48 hrs IC50 incubated for 48 hrs by Western immunoblot assay; assay type: ADME, cell-based; details: du-145, 48 h
PC-3 [9] = assay: Effect on ERK 1/2 basel level in human PC3 cells assessed as downregulation of ERK 1/2 basal level at 48 hrs IC50 incubated for 96 hrs by Western immunoblot assay; assay type: ADME, cell-based; details: pc-3, 96 h
[10] = molecular target: T1, Mitogen-activated protein kinase; ERK1/ERK2 (Homo sapiens) (UniProt P27361+P28482); assay: Effect on ERK 1/2 phosphorylation at T202/Y204 residues in human DU145 cells assessed as increase in ERK1/2 phosphorylation at T202/Y204 at 48 hrs IC50 incubated for 48 to 96 hrs by Western immunoblot assay; assay type: cell-based
T1 sequence (P27361 whole entry, looked up): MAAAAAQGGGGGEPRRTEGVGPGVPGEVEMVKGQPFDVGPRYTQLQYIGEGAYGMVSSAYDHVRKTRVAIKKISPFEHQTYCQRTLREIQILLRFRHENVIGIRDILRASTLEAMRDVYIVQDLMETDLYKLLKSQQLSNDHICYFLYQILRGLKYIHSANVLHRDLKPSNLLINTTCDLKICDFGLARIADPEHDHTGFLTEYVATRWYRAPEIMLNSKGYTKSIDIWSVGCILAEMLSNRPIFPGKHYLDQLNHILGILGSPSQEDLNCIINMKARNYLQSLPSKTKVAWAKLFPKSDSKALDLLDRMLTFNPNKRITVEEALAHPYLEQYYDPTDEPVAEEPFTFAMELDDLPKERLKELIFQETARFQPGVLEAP
T1 sequence (P28482 whole entry, looked up): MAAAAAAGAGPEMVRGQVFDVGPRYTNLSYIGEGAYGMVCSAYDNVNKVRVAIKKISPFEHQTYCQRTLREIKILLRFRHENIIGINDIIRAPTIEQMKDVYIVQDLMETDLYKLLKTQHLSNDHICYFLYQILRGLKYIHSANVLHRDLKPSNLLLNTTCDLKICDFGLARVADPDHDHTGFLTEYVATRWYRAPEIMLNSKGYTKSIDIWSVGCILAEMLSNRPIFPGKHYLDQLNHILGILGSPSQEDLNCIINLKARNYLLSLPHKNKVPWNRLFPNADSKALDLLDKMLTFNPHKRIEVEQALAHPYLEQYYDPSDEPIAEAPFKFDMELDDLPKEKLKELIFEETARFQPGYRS

[11] = molecular target: T1, Mitogen-activated protein kinase; ERK1/ERK2 (Homo sapiens); assay: Effect on ERK 1/2 phosphorylation at T202/Y204 residues in human PC3 cells assessed as decrease in ERK1/2 phosphorylation at T202/Y204 at 48 hrs IC50 incubated for 48 hrs by Western immunoblot assay; assay type: cell-based
[12] = molecular target: T1, Mitogen-activated protein kinase; ERK1/ERK2 (Homo sapiens); assay: Effect on ERK 1/2 phosphorylation at T202/Y204 residues in human PC3 cells assessed as decrease in ERK1/2 phosphorylation at T202/Y204 at 48 hrs IC50 incubated for 96 hrs by Western immunoblot assay; assay type: cell-based
DU-145 [13] = assay: Effect on AKT basal level in heterozygous PTEN-positive human DU145 cells assessed as reduction in AKT basal level at 48 hrs IC50 incubated for 48 hrs by Western immunoblot assay; assay type: ADME, cell-based; details: du-145, 48 h
[14] = molecular target: RAC-alpha serine/threonine-protein kinase (Homo sapiens) (UniProt P31749); assay: Effect on AKT phosphorylation at S473 in heterozygous PTEN-positive human DU145 cells as reduction in AKT phosphorylation at S473 residue at 48 hr IC50 incubated for 48 hrs by Western immunoblot assay
RAC-alpha serine/threonine-protein kinase (Homo sapiens), sequence (P31749 whole entry): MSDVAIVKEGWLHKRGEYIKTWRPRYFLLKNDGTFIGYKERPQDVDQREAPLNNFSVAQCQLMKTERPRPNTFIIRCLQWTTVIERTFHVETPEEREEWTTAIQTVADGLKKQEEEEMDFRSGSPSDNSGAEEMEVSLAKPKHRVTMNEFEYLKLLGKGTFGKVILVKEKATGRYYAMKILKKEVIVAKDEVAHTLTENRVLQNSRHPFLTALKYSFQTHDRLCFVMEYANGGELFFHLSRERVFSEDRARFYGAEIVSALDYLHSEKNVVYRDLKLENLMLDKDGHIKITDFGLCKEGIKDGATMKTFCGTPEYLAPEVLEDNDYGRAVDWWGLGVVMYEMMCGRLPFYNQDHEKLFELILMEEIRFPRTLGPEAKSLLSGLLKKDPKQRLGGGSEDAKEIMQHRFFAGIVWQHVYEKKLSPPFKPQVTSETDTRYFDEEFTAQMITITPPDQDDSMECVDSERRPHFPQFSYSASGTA

[15] = molecular target: RAC-alpha serine/threonine-protein kinase (Homo sapiens) (UniProt P31749); assay: Effect on AKT phosphorylation at S473 homozygous PTEN-deficient human PC3 cells as reduction in AKT phosphorylation at S473 residue at 48 hr IC50 incubated for 48 to 96 hrs by Western immunoblot assay
PC-3 [16] = assay: Effect on AKT basal level in homozygous PTEN-deficient human PC3 cells assessed as reduction in AKT basal level at 48 hr IC50 incubated for 48 to 96 hrs by Western immunoblot assay; assay type: ADME, cell-based
DU-145 [17] = assay: Effect on human DU145 cell growth assessed as population doubling at 48 hr IC50 incubated for 96 hrs by cell counter based trypan blue exclusion assay (reference value: 2.89); assay type: functional
PC-3 [18] = assay: Effect on human PC3 cell growth assessed as no change in population doubling at 48 hr IC50 incubated for 48 hrs by cell counter based trypan blue exclusion assay; assay type: functional
PC-3 [19] = assay: Effect on human PC3 cell growth assessed as population doubling at 48 hr IC50 incubated for 96 hrs by cell counter based trypan blue exclusion assay (reference value: 2.6); assay type: functional
DU-145 [20] = assay: Induction of apoptosis in human DU145 cells assessed as increase in cleaved PARP1 level after 48 to 96 hrs by Western blot analysis; assay type: functional, cell-based
PC-3 [21] = assay: Induction of apoptosis in human PC3 cells assessed as increase in cleaved PARP1 level after 48 to 96 hrs by Western blot analysis; assay type: functional, cell-based
Quadruplex DNA [22] = assay: Stabilization of synthetic 5'Dabcyl/3'-FAM-labeled telomeric 22 G4 quadruplex DNA assessed as change in melting temperature by fluorescence melting assay; assay type: nucleic-acid assay
Quadruplex DNA [23] = assay: Stabilization of synthetic 5'Dabcyl/3'-FAM-labeled EGFR 272 G4 quadruplex DNA assessed as change in melting temperature by fluorescence melting assay; assay type: nucleic-acid assay
Quadruplex DNA [24] = assay: Stabilization of synthetic 5'Dabcyl/3'-FAM-labeled EGFR 272 G4 quadruplex DNA assessed as change in melting temperature at 1 uM by Fluorescence melting assay; assay type: nucleic-acid assay
DU-145 [25] = assay: Down regulation of EGFR protein expression in human DU145 cells at 48 hrs IC50 incubated for 96 hrs by Western immunoblot assay relative to control; assay type: functional
PC-3 [26] = assay: Down regulation of EGFR protein expression in human PC3 cells at 48 hrs IC50 incubated for 48 hrs by Western immunoblot assay relative to control; assay type: functional
Homo sapiens [27] = organism: Homo sapiens; assay: Effect on telomere DNA in human PC3 cells assessed as telomere DNA length at 48 hrs 0.5 times IC50 treated for every week for 56 days by pulsed field electrophoresis/southern blot based densitometric analysis (reference value: 4.6 +/- 0.3 kb); assay type: cell-based
Homo sapiens [28] = organism: Homo sapiens; assay: Effect on telomere DNA in human DU145 cells assessed as telomere DNA length at 48 hrs 0.5 times IC50 treated for every week for 56 days by pulsed field electrophoresis/southern blot based densitometric analysis (reference value: 3.9 +/- 0.5 kb); assay type: cell-based
Homo sapiens [29] = organism: Homo sapiens; assay: Effect on telomere DNA in human PC3 cell assessed as increase in telomere DNA length at 48 hrs 0.5 times IC50 treated for every week for 56 days by pulsed field electrophoresis/southern blot based densitometric analysis
DU-145 [30] = assay: Effect on human DU145 cell growth assessed as change in cell growth at 72 hrs 0.5 times IC50 treated for every week for 56 days by cell counter based trypan blue exclusion assay; assay type: functional
DU-145 [31] = assay: Effect of EGFR protein expression in human DU145 cell at 48 hrs IC50 treated for every week for 56 days by Western immunoblotting analysis; assay type: functional, cell-based
PC-3 [32] = assay: Effect on human PC3 cell growth assessed as reduction in cell growth at 72 hrs 0.5 times IC50 treated for every week for 56 days by cell counter based trypan blue exclusion assay; assay type: functional
PC-3 [33] = assay: Effect of EGFR protein expression in human PC3 cell assessed as reduction in EGFR level at 48 hrs IC50 treated for every week for 56 days by Western immunoblotting analysis; assay type: functional
PC-3 [34] = assay: Effect on telomeric C-circle DNA in human PC3 cell assessed as alternative telomere maintenance based increase in telomeric C-circle DNA level at 48 hrs 0.5 times IC50 treated for every week for 56 days [32P]-labeled (CCCTAA)3 probe incubated for 56 days followed by post incubation of 8 hrs in presence of Bacillus phage phi29 DNA polymerase and further heat inactivation at 65 degreeC for 20 mins by dot blot based CC assay; assay type: functional
PC-3 [35] = assay: Effect on ephithelial-mesenchymal transition in human PC3 cell assessed as decrease in E-cadherin expression at 48 hrs 0.5 times IC50 treated for every week for 56 days by Western immunoblotting analysis; assay type: functional, cell-based
Quadruplex DNA [36] = assay: Binding affinity to synthetic 5'Dabcyl/3'-FAM-labeled EGFR 272 G4 quadruplex DNA folded DNA assessed as enthalpy change by isothermal titration calorimetry; assay type: nucleic-acid assay
Quadruplex DNA [37] = assay: Binding affinity to synthetic 5'Dabcyl/3'-FAM-labeled telomeric 22 G4 quadruplex DNA folded DNA assessed as enthalpy change by isothermal titration calorimetry; assay type: nucleic-acid assay
Quadruplex DNA [38] = assay: Binding affinity to synthetic 5'Dabcyl/3'-FAM-labeled telomeric 22 G4 quadruplex DNA folded DNA assessed as entropy change by isothermal titration calorimetry; assay type: nucleic-acid assay
Quadruplex DNA [39] = assay: Binding affinity to synthetic 5'Dabcyl/3'-FAM-labeled EGFR 272 G4 quadruplex DNA folded DNA assessed as entropy change by isothermal titration calorimetry; assay type: nucleic-acid assay
DU-145 [40] = assay: Down regulation of EGFR protein expression in human DU145 cells after 24 hrs by Western immunoblot assay; assay type: functional, cell-based
PC-3 [41] = assay: Down regulation of EGFR protein expression in human PC3 cells after 24 hrs by Western immunoblot assay; assay type: functional, cell-based
PC-3 [42] = assay: Effect on ephithelial-mesenchymal transition in human PC3 cell assessed as increase in vimentin at 48 hrs 0.5 times IC50 treated for every week for 56 days by Western immunoblotting analysis; assay type: functional, cell-based
DU-145 [43] = assay: Effect on ERK 2 basal level in human DU145 cells assessed as reduction in ERK 2 basal level at 48 hrs IC50 incubated for 48 hrs by Western immunoblot assay; assay type: ADME, cell-based; details: du-145, 48 h
PC-3 [44] = assay: Down regulation of EGFR protein expression in human PC3 cells at 48 hrs IC50 incubated for 96 hrs by Western immunoblot assay relative to control; assay type: functional

- Activity [10]: Active
- Activity [11]: Active
- Activity [12]: inactive
- Activity [14]: inactive
- Activity [15]: Active
- Activity (Quadruplex DNA [22]): Active
- Activity (Quadruplex DNA [23]): Active
- Activity (Quadruplex DNA [24]): Active
- Activity (Homo sapiens [29]): Active
- deltaH (Quadruplex DNA [36]): -21.5 kcal/mol
- deltaH (Quadruplex DNA [37]): -10.7 kcal/mol
- deltaS (Quadruplex DNA [38]): -10.1 cal/mol.K
- deltaS (Quadruplex DNA [39]): -46.4 cal/mol.K
SMILES: COc1ccc(CNCCCN2C(=O)c3ccc4c5c(ccc(c35)C2=O)C(=O)N(CCCNCc2ccc(OC)c(OC)c2OC)C4=O)c(OC)c1OC
- IC50 (DU-145 [1]): 3.46 µM
- IC50 (DU-145 [2]): 2.26 µM
- IC50 (DU-145 [3]): 1.72 µM
- IC50 (PC-3 [4]): 1.36 µM
- IC50 (PC-3 [5]): 0.97 µM
- IC50 (PC-3 [6]): 0.63 µM
- Activity (PC-3 [7]): Toxic
- Activity (DU-145 [8]): Toxic
- Activity (PC-3 [9]): Toxic
- Activity (DU-145 [13]): Toxic
- Activity (PC-3 [16]): Toxic
- Activity (DU-145 [17]): 2
- Activity (PC-3 [18]): Active
- Activity (PC-3 [19]): 0.51
- Activity (DU-145 [20]): Active
- Activity (PC-3 [21]): inactive
- Activity (DU-145 [25]): 20%
- Activity (PC-3 [26]): 70 - 80%
- Activity (Homo sapiens [27]): 4.5 kilobase
- Activity (Homo sapiens [28]): 3.8 kilobase
- Activity (DU-145 [30]): inactive
- Activity (DU-145 [31]): inactive
- Activity (PC-3 [32]): Active
- inhibition (INH) (PC-3 [33]): 100%
- Activity (PC-3 [34]): Active
- Activity (PC-3 [35]): Active
- Activity (DU-145 [40]): Dose-dependent effect
- Activity (PC-3 [41]): Dose-dependent effect
- Activity (PC-3 [42]): Active

- Activity [10]: Active
- Activity [11]: Active
- Activity [12]: inactive
- Activity [14]: inactive
- Activity [15]: Active
- Activity (Quadruplex DNA [22]): Active
- Activity (Quadruplex DNA [23]): Active
- Activity (Quadruplex DNA [24]): Active
- Activity (Homo sapiens [29]): Active
- deltaH (Quadruplex DNA [36]): -1.1 kcal/mol
- deltaH (Quadruplex DNA [37]): -8 kcal/mol
- deltaS (Quadruplex DNA [38]): -1.9 cal/mol.K
- deltaS (Quadruplex DNA [39]): 18.9 cal/mol.K
SMILES: COc1ccccc1CNCCCN1C(=O)c2ccc3c4c(ccc(c24)C1=O)C(=O)N(CCCNCCCCN)C3=O
- IC50 (DU-145 [1]): 4.76 µM
- IC50 (DU-145 [2]): 2.73 µM
- IC50 (DU-145 [3]): 2.05 µM
- IC50 (PC-3 [4]): 2.8 µM
- IC50 (PC-3 [5]): 2.44 µM
- IC50 (PC-3 [6]): 1.46 µM
- Activity (PC-3 [7]): Toxic
- Activity (DU-145 [8]): Toxic
- Activity (DU-145 [43]): Toxic
- Activity (PC-3 [9]): Toxic
- Activity (DU-145 [13]): Toxic
- Activity (PC-3 [16]): Toxic
- Activity (DU-145 [17]): 1.85
- Activity (PC-3 [18]): Active
- Activity (PC-3 [19]): 0.97
- Activity (DU-145 [20]): Active
- Activity (PC-3 [21]): inactive
- Activity (DU-145 [25]): 20%
- Activity (PC-3 [44]): 50%
- Activity (PC-3 [26]): 70 - 80%
- Activity (Homo sapiens [27]): 4.4 kilobase
- Activity (Homo sapiens [28]): 3.8 kilobase
- Activity (DU-145 [30]): inactive
- Activity (DU-145 [31]): inactive
- Activity (PC-3 [32]): Active
- inhibition (INH) (PC-3 [33]): 100%
- Activity (PC-3 [34]): Active
- Activity (PC-3 [35]): Active
- Activity (DU-145 [40]): Dose-dependent effect
- Activity (PC-3 [41]): Dose-dependent effect
- Activity (PC-3 [42]): Active
